Legend:
Rat [1] = assay: concentration in kidney after dosing; conditions: 1 h; dosed: Fluorotelomer alcohol 8+2; 80 mg/kg; oral; Female; Harlan Sprague Dawley
Rat [2] = assay: concentration in plasma after dosing; conditions: dosed: Wyeth-14643, 2.0 mg/kg, oral, Male, Sprague-Dawley
Rat [3] = assay: concentration in plasma after dosing; conditions: dosed: Wyeth-14643, 5.0 mg/kg, oral, Male, Sprague-Dawley
Rat [4] = assay: concentration in plasma after dosing; conditions: 40 min; dosed: Di-n-butyl phthalate; 50 mg/kg; oral; Male; Sprague-Dawley
Rat [5] = assay: concentration in plasma after dosing; conditions: 15 h; dosed: Di-n-butyl phthalate; 100 mg/kg; oral; Male; Sprague-Dawley
Rat [6] = assay: concentration in plasma after dosing; conditions: dosed: dichloroacetic acid, 40 mg/kg, oral, Female, Harlan Sprague Dawley
Rat [7] = assay: concentration in plasma after dosing; conditions: dosed: dichloroacetic acid, 100 mg/kg, oral, Male, F344
Rat [8] = assay: concentration in kidney after dosing; conditions: 1848 h; dosed: Perfluorodecanoic acid; 10 mg/kg; oral; Female; Harlan Sprague Dawley
Rat [9] = assay: concentration in liver after dosing; conditions: 1848 h; dosed: Perfluorodecanoic acid; 10 mg/kg; oral; Male; Harlan Sprague Dawley
Rat [10] = assay: concentration in plasma after dosing; conditions: dosed: Perfluorodecanoic acid, 2 mg/kg, iv, Male, F344
rat [11] = assay: concentration in blood after dosing; conditions: dosed: p-tert-octylphenol, Sprague-Dawley
Rat [12] = assay: concentration in plasma after dosing; conditions: 9 h; dosed: Primidone; 130 mg/kg; oral; Male; F344
Rat [13] = assay: concentration in plasma after dosing; conditions: 1.5 h; dosed: Primidone; 30 mg/kg; oral; Male; F344
Rat [14] = assay: concentration in plasma after dosing; conditions: 3 h; dosed: Primidone; 30 mg/kg; oral; Male; F344
Rat [15] = assay: concentration in thymus after dosing; conditions: 4 h; dosed: Bis 2-Chloroethoxy Methane; 20 mg/kg; iv; Male; F344
Rat [16] = assay: concentration in heart after dosing; conditions: 4 h; dosed: Bis 2-Chloroethoxy Methane; 20 mg/kg; iv; Female; F344
Rat [17] = assay: concentration in thymus after dosing; conditions: 2 h; dosed: Bis 2-Chloroethoxy Methane; 20 mg/kg; iv; Male; F344

OCCC(F)(F)C(F)(F)C(F)(F)C(F)(F)C(F)(F)C(F)(F)C(F)(F)C(F)(F)F [Fluorotelomer alcohol 8+2]
Conditions | concentration in kidney [ng/g]
Rat [1] | 3330

Cc1cccc(Nc2cc(Cl)nc(SCC(=O)O)n2)c1C
concentration in plasma [ng/mL]
Conditions | 0.5 h | 5 h | 10 h
Rat [2] | 1670 | 507 | –
Rat [3] | 1970 | – | 150

CCCCOC(=O)c1ccccc1C(=O)O [Mono-n-butyl phthalate]
Conditions | concentration in plasma [ng/mL]
Rat [4] | 16800
Rat [5] | 1250

O=C(O)C(Cl)Cl [dichloroacetic acid]
concentration in plasma [ng/mL]
Conditions | 1.5 h | 4 h | 10 min
Rat [6] | 2780 | – | 6310
Rat [7] | – | 55600 | 11900

O=C(O)C(F)(F)C(F)(F)C(F)(F)C(F)(F)C(F)(F)C(F)(F)C(F)(F)C(F)(F)C(F)(F)F [Perfluorodecanoic acid]
Conditions | concentration in kidney [ng/g] | concentration in liver [ng/g]
Rat [8] | 11800 | –
Rat [9] | – | 32000

Rat [10]
Conditions | concentration in plasma [ng/mL]
24 h | 5820
1848 h | 764

CC(C)(C)CC(C)(C)c1ccc(O)cc1 [octylphenol]
concentration in blood [ng/mL], rat [11]
Conditions | female | male
0.1573 h, 2 mg/kg, iv | – | 159
0.1576 h, 4 mg/kg, iv | – | 317
0.1581 h, 8 mg/kg, iv | – | 942
0.1679 h, 2 mg/kg, iv | 116 | –
0.1763 h, 4 mg/kg, iv | 283 | –
0.1763 h, 8 mg/kg, iv | 852 | –
0.4805 h, 8 mg/kg, iv | – | 376
0.4823 h, 125 mg/kg, oral | – | 157
0.4883 h, 2 mg/kg, iv | – | 63.6
0.4888 h, 4 mg/kg, iv | – | 169
0.499 h, 250 mg/kg, oral | – | 244
0.5015 h, 50 mg/kg, oral | – | 63.7
0.5164 h, 2 mg/kg, iv | 67.8 | –
0.5164 h, 4 mg/kg, iv | 141 | –
0.5164 h, 8 mg/kg, iv | 430 | –
0.519 h, 125 mg/kg, oral | 159 | –
0.5202 h, 250 mg/kg, oral | 222 | –
0.5529 h, 50 mg/kg, oral | 136 | –
0.8196 h, 2 mg/kg, iv | – | 46.6
0.8247 h, 8 mg/kg, iv | – | 258
0.8286 h, 4 mg/kg, iv | – | 107
0.8355 h, 2 mg/kg, iv | 43.6 | –
0.8355 h, 4 mg/kg, iv | 89.6 | –
0.8397 h, 8 mg/kg, iv | 303 | –
0.9901 h, 250 mg/kg, oral | – | 379
0.9911 h, 125 mg/kg, oral | – | 219
0.9923 h, 50 mg/kg, oral | – | 116
1.038 h, 125 mg/kg, oral | 271 | –
1.051 h, 50 mg/kg, oral | 87.5 | –
1.147 h, 8 mg/kg, iv | – | 210
1.155 h, 2 mg/kg, iv | – | 28.8
1.16 h, 4 mg/kg, iv | – | 69.7
1.167 h, 2 mg/kg, iv | 23.8 | –
1.167 h, 4 mg/kg, iv | 71 | –
1.167 h, 8 mg/kg, iv | 229 | –
1.486 h, 2 mg/kg, iv | – | 24.8
1.487 h, 8 mg/kg, iv | – | 169
1.499 h, 8 mg/kg, iv | 170 | –
1.5 h, 4 mg/kg, iv | – | 59.3
1.503 h, 2 mg/kg, iv | 25.3 | –
1.503 h, 4 mg/kg, iv | 59 | –
1.994 h, 2 mg/kg, iv | 16.1 | –
1.994 h, 4 mg/kg, iv | 46.2 | –
1.994 h, 8 mg/kg, iv | 128 | –
2.003 h, 2 mg/kg, iv | – | 22.4
2.003 h, 4 mg/kg, iv | – | 39.3
2.004 h, 8 mg/kg, iv | – | 122
2.038 h, 125 mg/kg, oral | 235 | –
2.052 h, 50 mg/kg, oral | 109 | –
2.08 h, 250 mg/kg, oral | – | 305
2.081 h, 50 mg/kg, oral | – | 128
2.081 h, 125 mg/kg, oral | – | 171
2.989 h, 4 mg/kg, iv | – | 23.4
2.993 h, 8 mg/kg, iv | – | 72.1
2.998 h, 2 mg/kg, iv | 15.9 | –
2.998 h, 4 mg/kg, iv | 33.8 | –
3.015 h, 8 mg/kg, iv | 101 | –
3.991 h, 4 mg/kg, iv | – | 12.2
3.996 h, 8 mg/kg, iv | – | 40.2
3.997 h, 8 mg/kg, iv | 57.6 | –
4.014 h, 4 mg/kg, iv | 21.7 | –
4.016 h, 50 mg/kg, oral | 70 | –
4.022 h, 250 mg/kg, oral | 320 | –
4.03 h, 250 mg/kg, oral | – | 260
4.031 h, 125 mg/kg, oral | – | 160
4.032 h, 50 mg/kg, oral | – | 85.1
4.038 h, 125 mg/kg, oral | 268 | –
6.016 h, 50 mg/kg, oral | 69.2 | –
6.02 h, 125 mg/kg, oral | 210 | –
6.021 h, 250 mg/kg, oral | 268 | –
6.034 h, 250 mg/kg, oral | – | 192
6.07 h, 50 mg/kg, oral | – | 87
6.07 h, 125 mg/kg, oral | – | 123
7.933 h, 50 mg/kg, oral | – | 77.3
8 h, 50 mg/kg, oral | 93.2 | –
8.003 h, 125 mg/kg, oral | 205 | 95.8
8.005 h, 250 mg/kg, oral | 357 | –
8.019 h, 250 mg/kg, oral | – | 210
11.97 h, 250 mg/kg, oral | 373 | –
11.98 h, 50 mg/kg, oral | 69.7 | –
11.99 h, 50 mg/kg, oral | – | 37.2
11.99 h, 125 mg/kg, oral | – | 84.2
11.99 h, 250 mg/kg, oral | – | 157
12.02 h, 125 mg/kg, oral | 209 | –
24.01 h, 50 mg/kg, oral | 24.7 | –
24.02 h, 250 mg/kg, oral | – | 107
24.03 h, 50 mg/kg, oral | – | 7.77
24.03 h, 125 mg/kg, oral | 63.5 | –
24.04 h, 125 mg/kg, oral | – | 28.8
24.04 h, 250 mg/kg, oral | 307 | –

concentration in blood [ng/mL], rat [11], 125 mg/kg
Conditions | 0.5035 h | 0.5155 h | 1.054 h | 2.015 h | 4.058 h | 5.98 h | 8.091 h | 12.04 h | 24.03 h
female | – | 19 | – | – | – | – | – | – | –
male | 23.9 | – | 39.1 | 61.8 | 90.3 | 102 | 180 | 122 | 54.7

CCC1(c2ccccc2)C(=O)NC(=O)NC1=O [Phenobarbital]
Conditions | concentration in plasma [ng/mL]
Rat [12] | 9740
Rat [13] | 1940
Rat [14] | 2460

ClCCOCOCCCl [Bis 2-Chloroethoxy Methane]
Conditions | concentration in heart [ng/g] | concentration in thymus [ng/g]
Rat [15] | – | 149
Rat [16] | 46.5 | –
Rat [17] | – | 478
